One assay deals with breast cancer samples. Description: Cultured breast cancer slices (chopper), Ki67. It is filed as cell-based, human. To be noted: 10 nM, 48 hs. An excerpt: Sections of formalin-fixed, paraffin-embedded tissue were stained with PR (C-19), or Ki67 (Dako, […]) antibodies using the avidin-biotin-peroxidase complex technique (Vectastain Elite ABC kit; Vector), as described previously (6). Positive cells were counted in 10 high-power fields (HPFs) of each section, using 1000× magnification, and expressed as the mean±SEM of the ratio between the number of positive events and the total cell number. Following the previous experiments shown in PART 1, breast cancer samples obtained after surgery from the Hospital General Pacheco (IRB approved by Hospital and IBYME) were used. Whenever possible, part of the sample is immediately frozen to be used in Western blot studies, other part is fixed to be used in IHC studies and a similar part is kept in medium culture. Slices obtained using a chopper were cultured for 48 hs with DMEM/F12 without phenol red and 10% fetal cal serum with or without MFP 10 nM. Tumor slices were then fixed, paraffin embedded and processed for immunohistochemistry. Cell proliferation was evaluated using Ki67 as described above. The number of slices depends on the sample size.

Another assay deals with C4-2-HI and 59-HI cells. Description: (3H)-thymidine incorporation with 5azadC and RU-486 in 10% FCS. It is filed as cell-based, mouse. To be noted: 5 μM 5azadC, 100 nM RU-486; P<0.001. On the procedure: (3H)-thymidine-uptake was used as an indirect method to evaluate cell proliferation. In brief, cells were seeded into 96-well microplates. After attachment (24 h), the cells were incubated for 24 h with 1% steroid-stripped FCS and then for 48 h with the experimental solutions to be tested in 1% chFCS. Fifty percent of the medium was replaced with fresh medium every 24 h. […] In experiments in which 5azadC was used, the experiments were carried out using proliferating cells (presence of 10% FCS) to guarantee the effect of the demethylating agent. Three different experiments were made using octuplicates, and the means and standard deviations of one representative experiment of the other three are shown.

The subject of assay [1] is mammary hyperplasias and carcinomas. Particulars: pellets of 35 mg; cited from earlier work.
In the next assay the test system is T47D-YA tumors. Description: Xenograft in NOD/LtSz-scid/IL-2Rgamma null mice. The class given is in vivo, human. An excerpt: (§1) BH-6 cell line was developed from an invasive ductal breast carcinoma (1). IBH-6 cells express basal levels of hormone receptors, they are tumorigenic and in vivo express higher levels of PRB than PRA (2). Cells were transfected with human PRB, PRA (pSG5-PRB, pSG5-PRA, kindly provided by K. Horwitz) or with the empty vector (pSG5), together with a plasmid encoding the neomycin resistance gene pIRES-N1(3), using Lipofectamine transfection reagent (Invitrogen) following the manufacturer's instructions. Transfected and selected cells were cultured in medium supplemented with […] G418 (neomycin analogue, GIBCO). The expression of PRB and PRA were analyzed by western blot and immunofluorescence (using Ab7 and Ab6 antibodies from Thermo Fisher). T47D-YA or YB were kindly provided by K. Horwitz and cultured as previously described (4).
(§2) Transfected and selected cells were grown up to confluence, washed with PBS, detached with 0.25% trypsin, centrifuged at 1000 rpm for 10 min and resuspended in a final concentration of 10^6 (IBH-6) or 5×10^6 (T47D) cells per 100 μl of culture medium. The cells were sc inoculated into the right flank of nu/nu (IBH-6) or NOD/LtSz-scid/IL-2Rgamma null (T47D-YA or -YB cells) female mice. Only in experiments involving T47D cells E2 silastic pellets (0.5 mg) were implanted sc into the back of the animals one week prior tumor cell inoculation and 70 μl of Matrigel were mixed with the cell suspension at the moment of injection. MFP (6 mg) silastic pellets were sc implanted when tumors reached 20-40 mm^2. For T47D cells, experiments were repeated inoculating both cell types (T47D-YA or -YB) simultaneously in the left or right flank of the mouse, respectively.
(§3) Sections of formalin-fixed, paraffin-embedded tissue were stained with PR (C-19), or Ki67 (Dako, M7248) antibodies using the avidin-biotin-peroxidase complex technique (Vectastain Elite ABC kit; Vector), as described previously (6). Positive cells were counted in 10 high-power fields (HPFs) of each section, using 1000× magnification, and expressed as the mean±SEM of the ratio between the number of positive events and the total cell number.
In general terms: A xenograft is tissue or cells of one species grown in another, often human tumour cells in immunodeficient mice.

For a further assay, the system named is T47D-YB tumors. Description: Xenograft in NOD/LtSz-scid/IL-2Rgamma null mice. The class given is in vivo, human.
From the text: as §1, §2, §3

Assay [2] deals with DMBA-induced mammary tumors. Particulars: cited from earlier work.

`CC#C[C@]1(O)CC[C@H]2[C@@H]3CCC4=CC(=O)CCC4=C3[C@@H](c3ccc(N(C)C)cc3)C[C@@]21C` [RU-486, mifepristone]: the Ki67 entry in the assay on breast cancer samples (1 PR negative case) is given as “no inhibition was observed”; with breast cancer samples (1 case PRA/PRB lower than 1), “significant inhibition”; in the assay with breast cancer samples (2 cases PRA/PRB lower than 1) it was “no inhibition was observed”; in the assay on breast cancer samples (3 cases PRA/PRB high), “significant inhibition of Ki67”. In the assay with breast cancer samples (PRA/PRB lower than 1, FIG. 25), the “Ki67, stimulation” value was “significant stimulation”. In addition, the “cell proliferation, (3H)-thymidine incorporation” value with C4-2-HI and 59-HI cells is “did not alter cell proliferation”. Moreover, the “induction of hyperplasia or carcinoma” value in assay [1] is “prevented the induction of either hyperplasia or carcinoma”. Besides, the tumor size entry in the assay with T47D-YA tumors (MFP pellet, E2 pellet 0.5 mg, p<0.05) was “reduced their size”; in the assay on T47D-YB tumors (MFP pellet, E2 pellet 0.5 mg) it was “no significant differences”. In the assay on T47D-YA tumors (in vivo), the “mitotic figures and apoptosis” value was “Few mitotic figures and a high degree of apoptosis”. In the assay on T47D-YA tumors (in vivo), the “nuclear MYC or CCND1 expression (IHC)” value is “decreased levels of nuclear MYC or CCND1 expression”. In addition, the tumor morphology entry in the assay on T47D-YA tumors (in vivo) is “morphological signs of tumor regression”. The “nuclear MYC or CCND1 staining (IHC)” value with T47D-YB tumors (in vivo) is recorded as “intense nuclear staining”. For the same molecule, the tumor development entry in assay [2] (10 mg/kg/day for 3 weeks) is on record as “delayed tumor development”. Further, in assay [2] (10 mg/kg/day for 3 weeks), the tumor growth result is “inhibited tumor growth”. For the same molecule, in assay [2] (rat, in vivo), the “PR (and ER) expression” value is recorded as “induced down regulation of the PR”.

(Values after patent publication US10039806B2, “Methods and compositions for treating antiprogestin-resistant cancers” (Fundación Sales, priority 2011, dated 2018).)
